Assay results: ChEMBL document CHEMBL4330116, “Harzianoic acids A and B, new natural scaffolds with inhibitory effects against hepatitis C virus” (Bioorg Med Chem, 2019)
Activity calls are given as the source filed them. The rule behind the calls is not given here.

Tested on: Vesicular stomatitis virus
Assay: Antiviral activity against VSV pseudoparticles infected in human Huh7.5 cells infected with VSV pseudoparticles expressed in 293T cells with plasmid encoding vesicular stomatitis G protein, envelope and Vpr deficient HIV vector carrying luciferase reporter gene inserted into Nef position assessed as inhibition of pseudoparticle entry at 6.25 to 100 uM after 72 hrs by luciferase reporter gene assay
Format: functional, organism-based

| Compound | inhibition |
| --- | --- |
| CC(=O)[C@@H]1C[C@H](C(=O)O)[C@@]1(C)CC/C=C(\C)C(=O)O | inactive |
| C/C(=C\CC[C@]1(C)[C@@H](C(=O)O)C[C@H]1[C@](C)(O)C(=O)O)C(=O)O | inactive |
